According to ChEMBL document CHEMBL1201862, “PubChem BioAssay data set” (2004):
Calls of active or inactive are those of the source.

How the values were obtained:
[1] = biological target: T1, Microphthalmia-associated transcription factor (Homo sapiens, UniProt O75030); experiment: reducers of TRPM1 reporter luminescence, concentration series – cell-based, SK-MEL-5, cherry-picked, set 3, MITF inhibitor project, dose response (AID 493073); assay type: functional;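 also: SK-MEL-5 melanoma cells with luciferase driven by the MITF target TRPM1 promoter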
T1 sequence (O75030 whole entry): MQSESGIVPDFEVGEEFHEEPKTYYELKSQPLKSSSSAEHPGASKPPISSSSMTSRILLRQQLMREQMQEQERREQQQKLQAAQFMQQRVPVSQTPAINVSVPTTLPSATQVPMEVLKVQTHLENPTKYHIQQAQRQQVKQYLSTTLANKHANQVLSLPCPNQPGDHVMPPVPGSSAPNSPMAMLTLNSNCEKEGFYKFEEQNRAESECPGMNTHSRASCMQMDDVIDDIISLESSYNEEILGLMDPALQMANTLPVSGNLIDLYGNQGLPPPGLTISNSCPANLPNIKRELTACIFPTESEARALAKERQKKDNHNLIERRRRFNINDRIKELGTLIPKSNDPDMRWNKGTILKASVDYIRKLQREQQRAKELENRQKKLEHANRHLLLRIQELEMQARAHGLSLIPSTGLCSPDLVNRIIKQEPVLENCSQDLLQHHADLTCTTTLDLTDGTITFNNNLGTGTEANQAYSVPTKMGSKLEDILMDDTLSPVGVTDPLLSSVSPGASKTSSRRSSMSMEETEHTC

cells [2] = assay type: functional, cell-based
A-375 = experiment: proliferation inhibition in MITF-low A375 cells – cell-based, cherry-pick samples, set 2, counter-screen for MITF modulator project, dose response (AID 540335); assay type: functional; details: Homo sapiens
BJ [3] = experiment: growth inhibition of engineered Ras-driven BJ cells – cell-based, alamar blue fluorescence, cherrypicked samples, dose response (AID 2631); assay type: functional; details: Homo sapiens;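 also: confirmatory dose-response assay in RAS-dependent BJ fibroblasts engineered with TERT, LT and ST, with cytotoxicity read by fluorescence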
[4] = loss of viability in HepG2 cells – cell-based, CellTiter-Glo, cherry-picked, cytotoxicity control for Shn3 inhibitor project, dose response (AID 624134); assay type: functional
BJ [5] = experiment: BJ-TERT fibroblast viability loss – cell-based, RAS-independent, luminescence, dose response (AID 1933); assay type: functional; details: Homo sapiens
[6] = Vero E6 cell cytotoxicity, dose response, cytotoxicity control for non-replicating M. tuberculosis project, secondary assay (AID 492998); assay type: functional, VeroE6; details: Vero C1008
[7] = HepG2 cell cytotoxicity, dose response, cytotoxicity control for non-replicating M. tuberculosis project (AID 489018); assay type: functional; details: Mycobacterium tuberculosis
HT-1080 = experiment: HT1080 cell viability loss – fluorescence readout (AID 620); assay type: functional, cell-based; details: Homo sapiens
[8] = non-specific 3'UTR reporter inhibition in Clone20-Shn3RL – cell-based, Renilla luciferase, cherry-picked, counter-screen for Shn3 inhibitor project, dose response (AID 624133); assay type: functional
BJ [9] = experiment: cells; assay type: functional, cell-based; details: Homo sapiens
Nonstructural protein 1 = Nonstructural protein 1 (Influenza A virus, UniProt Q194T2); assay type: functional, Influenza A virus (A/California/07/2009(H1N1))
Nonstructural protein 1, sequence (Q194T2 whole entry): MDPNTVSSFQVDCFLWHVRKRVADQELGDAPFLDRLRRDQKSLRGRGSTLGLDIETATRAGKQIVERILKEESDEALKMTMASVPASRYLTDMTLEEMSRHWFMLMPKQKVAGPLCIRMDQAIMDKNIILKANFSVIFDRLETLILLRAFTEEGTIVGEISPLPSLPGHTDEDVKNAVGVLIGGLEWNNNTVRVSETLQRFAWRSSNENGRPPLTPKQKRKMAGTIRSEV

[10] = biological target: Luciferin 4-monooxygenase (Photinus pyralis, UniProt P08659); experiment: Counter Screen for Luciferase-based Assay Positives. [Related pubchem assays: 620, 618, 411 ]
Luciferin 4-monooxygenase, sequence (P08659 whole entry): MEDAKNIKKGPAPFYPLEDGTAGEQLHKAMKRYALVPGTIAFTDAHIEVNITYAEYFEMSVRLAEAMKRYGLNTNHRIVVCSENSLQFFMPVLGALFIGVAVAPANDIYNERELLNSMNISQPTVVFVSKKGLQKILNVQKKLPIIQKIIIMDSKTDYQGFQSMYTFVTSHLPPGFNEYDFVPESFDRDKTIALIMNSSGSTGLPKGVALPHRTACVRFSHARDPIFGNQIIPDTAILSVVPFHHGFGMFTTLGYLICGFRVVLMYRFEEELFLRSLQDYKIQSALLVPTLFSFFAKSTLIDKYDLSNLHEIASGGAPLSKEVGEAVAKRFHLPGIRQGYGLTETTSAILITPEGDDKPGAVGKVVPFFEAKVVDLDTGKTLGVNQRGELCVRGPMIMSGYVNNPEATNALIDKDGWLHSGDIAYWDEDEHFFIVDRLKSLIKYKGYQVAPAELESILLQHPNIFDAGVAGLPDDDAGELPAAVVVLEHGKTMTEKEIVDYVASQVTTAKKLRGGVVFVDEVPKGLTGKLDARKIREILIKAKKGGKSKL

[11] = reduction of Shn3 3'UTR-driven luciferase in osteoblasts – cell-based, Clone20 osteoblasts, firefly luciferase, cherry-picked, dose response (AID 624132); assay type: functional;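 also: firefly luciferase luminescence from reporter carrying the Shn3 3'UTR in osteoblasts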
[12] = DRD fibroblast viability loss – cell-based, non-viral oncogenic, luminescence, dose response (AID 1934); assay type: functional; details: Homo sapiens
BJ [13] = experiment: BJ-TERT-LT-ST fibroblast viability loss – cell-based, RAS-independent, luminescence, dose response (AID 1935); assay type: functional; details: Homo sapiens;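 also: BJ fibroblasts immortalized with TERT plus LT and ST oncogenes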
cells [14] = assay type: functional, cell-based; remark: listed apart in the source
cells [15] = assay type: functional
[16] = THP-1 cell cytotoxicity, dose response, cytotoxicity control for non-replicating M. tuberculosis project (AID 489025); assay type: functional
Hexokinase-1 = Hexokinase-1 (Homo sapiens, UniProt P19367); experiment: HK1 enzyme activation by HKDC1 hits – biochemical, selectivity assay for HKDC1 activator project, dose response (AID 504762); assay type: functional
[17] = biological target: DNA dC->dU-editing enzyme APOBEC-3G (Homo sapiens, UniProt Q9HC16); experiment: Dose Response confirmation of small molecule APOBEC3G DNA Deaminase Inhibitors via a fluorescence-based single-stranded DNA deaminase assay. [Related pubchem assays (depositor defined):AID493012, AID493028]; assay type: functional
DNA dC->dU-editing enzyme APOBEC-3G, sequence (Q9HC16 whole entry): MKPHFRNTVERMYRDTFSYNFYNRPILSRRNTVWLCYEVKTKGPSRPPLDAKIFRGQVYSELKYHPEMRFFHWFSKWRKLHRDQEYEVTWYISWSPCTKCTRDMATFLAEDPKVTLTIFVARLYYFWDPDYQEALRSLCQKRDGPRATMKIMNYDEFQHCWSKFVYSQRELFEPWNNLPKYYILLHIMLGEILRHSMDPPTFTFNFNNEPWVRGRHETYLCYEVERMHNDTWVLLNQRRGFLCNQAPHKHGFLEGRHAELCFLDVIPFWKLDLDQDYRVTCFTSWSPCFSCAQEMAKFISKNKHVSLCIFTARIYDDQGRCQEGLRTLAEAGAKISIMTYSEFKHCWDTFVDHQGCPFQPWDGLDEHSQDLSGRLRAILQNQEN

[18] = biological target: T2, Voltage-gated N-type calcium channel alpha-1B subunit/Amyloid beta A4 precursor protein-binding family A member 1 (Homo sapiens, UniProt Q00975+Q02410); assay type: protein assay
T2 sequence (Q00975 whole entry): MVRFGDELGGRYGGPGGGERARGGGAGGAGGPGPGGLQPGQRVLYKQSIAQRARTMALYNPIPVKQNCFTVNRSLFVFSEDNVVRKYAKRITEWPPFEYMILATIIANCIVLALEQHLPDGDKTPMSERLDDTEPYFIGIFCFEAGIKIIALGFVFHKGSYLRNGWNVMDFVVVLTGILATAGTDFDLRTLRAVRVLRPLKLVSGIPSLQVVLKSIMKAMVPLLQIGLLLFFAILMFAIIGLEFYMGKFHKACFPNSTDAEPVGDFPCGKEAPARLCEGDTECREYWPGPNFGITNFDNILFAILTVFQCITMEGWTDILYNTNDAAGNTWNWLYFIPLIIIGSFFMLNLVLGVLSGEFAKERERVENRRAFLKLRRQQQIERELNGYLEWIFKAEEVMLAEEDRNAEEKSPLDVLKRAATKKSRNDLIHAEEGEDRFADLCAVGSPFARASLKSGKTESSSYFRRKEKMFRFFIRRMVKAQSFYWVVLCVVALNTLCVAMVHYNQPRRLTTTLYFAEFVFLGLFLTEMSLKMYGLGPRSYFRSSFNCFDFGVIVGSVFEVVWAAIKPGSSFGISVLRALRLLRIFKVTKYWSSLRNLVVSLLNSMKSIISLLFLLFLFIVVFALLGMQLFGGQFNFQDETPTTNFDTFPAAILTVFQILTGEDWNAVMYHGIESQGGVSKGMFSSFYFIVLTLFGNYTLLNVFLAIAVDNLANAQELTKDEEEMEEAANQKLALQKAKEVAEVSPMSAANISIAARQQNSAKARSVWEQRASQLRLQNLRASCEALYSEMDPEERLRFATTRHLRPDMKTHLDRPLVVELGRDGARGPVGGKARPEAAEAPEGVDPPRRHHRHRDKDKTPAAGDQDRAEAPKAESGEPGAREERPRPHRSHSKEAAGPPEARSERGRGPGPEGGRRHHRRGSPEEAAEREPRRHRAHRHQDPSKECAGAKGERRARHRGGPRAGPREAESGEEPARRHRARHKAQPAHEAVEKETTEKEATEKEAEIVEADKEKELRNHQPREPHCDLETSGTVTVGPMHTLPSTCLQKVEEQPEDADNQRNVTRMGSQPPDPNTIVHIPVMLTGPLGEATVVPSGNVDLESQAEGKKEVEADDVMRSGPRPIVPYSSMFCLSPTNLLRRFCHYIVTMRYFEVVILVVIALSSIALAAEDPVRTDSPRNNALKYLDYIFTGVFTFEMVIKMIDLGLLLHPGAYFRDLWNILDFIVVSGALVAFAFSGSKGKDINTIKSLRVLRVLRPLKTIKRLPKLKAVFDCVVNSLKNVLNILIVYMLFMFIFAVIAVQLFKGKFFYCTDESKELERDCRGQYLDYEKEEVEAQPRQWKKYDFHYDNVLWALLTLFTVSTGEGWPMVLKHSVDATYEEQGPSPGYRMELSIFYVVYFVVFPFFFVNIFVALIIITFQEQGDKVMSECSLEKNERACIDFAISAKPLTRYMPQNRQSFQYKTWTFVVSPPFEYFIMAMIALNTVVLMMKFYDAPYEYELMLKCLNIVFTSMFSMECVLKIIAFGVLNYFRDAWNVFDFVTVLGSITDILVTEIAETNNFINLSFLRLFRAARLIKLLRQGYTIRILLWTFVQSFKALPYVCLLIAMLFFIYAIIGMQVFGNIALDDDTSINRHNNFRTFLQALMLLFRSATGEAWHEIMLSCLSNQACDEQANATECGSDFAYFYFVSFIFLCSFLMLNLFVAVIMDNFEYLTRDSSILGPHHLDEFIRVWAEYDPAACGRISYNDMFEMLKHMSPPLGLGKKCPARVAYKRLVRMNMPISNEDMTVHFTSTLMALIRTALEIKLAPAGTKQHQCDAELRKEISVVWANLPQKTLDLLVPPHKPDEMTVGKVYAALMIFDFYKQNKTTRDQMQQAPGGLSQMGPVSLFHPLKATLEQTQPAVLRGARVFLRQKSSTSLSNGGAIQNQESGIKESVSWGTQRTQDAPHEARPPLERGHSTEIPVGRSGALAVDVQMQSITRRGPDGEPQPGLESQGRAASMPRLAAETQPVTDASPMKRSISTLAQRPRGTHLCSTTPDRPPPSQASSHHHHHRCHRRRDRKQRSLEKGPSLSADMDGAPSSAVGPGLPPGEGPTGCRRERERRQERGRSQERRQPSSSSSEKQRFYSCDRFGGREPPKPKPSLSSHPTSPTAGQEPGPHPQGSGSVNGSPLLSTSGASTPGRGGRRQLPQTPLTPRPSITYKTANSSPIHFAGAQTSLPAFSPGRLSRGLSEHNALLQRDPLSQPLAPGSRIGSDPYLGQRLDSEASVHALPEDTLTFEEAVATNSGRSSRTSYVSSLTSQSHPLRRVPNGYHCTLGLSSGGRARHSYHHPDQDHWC
T2 sequence (Q02410 whole entry): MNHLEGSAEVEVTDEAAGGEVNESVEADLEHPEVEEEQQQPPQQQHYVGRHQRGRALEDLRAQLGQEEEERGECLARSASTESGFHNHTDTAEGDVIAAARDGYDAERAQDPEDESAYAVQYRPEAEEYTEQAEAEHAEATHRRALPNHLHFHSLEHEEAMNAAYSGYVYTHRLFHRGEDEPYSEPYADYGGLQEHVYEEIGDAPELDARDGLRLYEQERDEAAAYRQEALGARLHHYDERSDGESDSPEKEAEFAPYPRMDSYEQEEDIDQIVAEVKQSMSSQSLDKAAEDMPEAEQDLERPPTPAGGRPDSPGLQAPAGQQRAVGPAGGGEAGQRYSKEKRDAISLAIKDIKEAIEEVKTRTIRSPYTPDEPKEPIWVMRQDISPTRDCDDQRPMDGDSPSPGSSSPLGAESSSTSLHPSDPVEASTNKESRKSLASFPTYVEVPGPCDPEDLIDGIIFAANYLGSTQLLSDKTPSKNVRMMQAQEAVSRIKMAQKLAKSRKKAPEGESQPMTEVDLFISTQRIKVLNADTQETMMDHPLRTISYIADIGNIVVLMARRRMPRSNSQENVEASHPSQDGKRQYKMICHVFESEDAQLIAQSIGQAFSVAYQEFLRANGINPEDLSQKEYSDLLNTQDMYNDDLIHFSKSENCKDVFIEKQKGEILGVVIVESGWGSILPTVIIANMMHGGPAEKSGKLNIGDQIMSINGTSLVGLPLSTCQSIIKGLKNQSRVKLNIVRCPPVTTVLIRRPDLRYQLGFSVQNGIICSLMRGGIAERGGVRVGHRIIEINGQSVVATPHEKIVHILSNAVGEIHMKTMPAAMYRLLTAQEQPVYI

[19] = biological target: Eukaryotic translation initiation factor 4E (Mus musculus, UniProt P63073); experiment: blockers of eIF4G binding by eIF4E – biochemical, TR-FRET, dose response (AID 855); assay type: functional;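 also: potency for disrupting eIF4E binding to eIF4GI seen as loss of FRET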
Eukaryotic translation initiation factor 4E, sequence (P63073 whole entry): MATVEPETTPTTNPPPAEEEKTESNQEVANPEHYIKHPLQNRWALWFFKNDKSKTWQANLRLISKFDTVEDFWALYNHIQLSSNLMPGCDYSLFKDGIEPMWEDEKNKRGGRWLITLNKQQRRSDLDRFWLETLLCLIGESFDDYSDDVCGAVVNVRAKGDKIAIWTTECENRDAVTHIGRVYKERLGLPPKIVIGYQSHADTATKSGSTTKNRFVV

[20] = biological target: T3, Mannose-6-phosphate isomerase (Homo sapiens, UniProt P34949); experiment: phosphomannose isomerase inhibition – biochemical, fluorescence intensity, confirmation (AID 1535)
T3 sequence (P34949 whole entry): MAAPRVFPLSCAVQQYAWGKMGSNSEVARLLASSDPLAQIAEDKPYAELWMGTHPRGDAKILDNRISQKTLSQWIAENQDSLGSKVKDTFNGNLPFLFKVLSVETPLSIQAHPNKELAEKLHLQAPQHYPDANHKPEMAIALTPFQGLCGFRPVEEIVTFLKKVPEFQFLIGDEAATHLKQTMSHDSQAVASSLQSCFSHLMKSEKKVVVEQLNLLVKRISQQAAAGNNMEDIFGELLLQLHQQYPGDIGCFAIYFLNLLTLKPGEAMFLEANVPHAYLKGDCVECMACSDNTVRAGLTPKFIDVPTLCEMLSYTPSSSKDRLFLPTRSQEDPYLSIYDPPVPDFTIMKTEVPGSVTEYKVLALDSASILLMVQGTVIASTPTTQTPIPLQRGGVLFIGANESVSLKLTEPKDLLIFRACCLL

Phosphomannomutase 2 = biological target: T4, Phosphomannomutase 2 (Homo sapiens, UniProt O15305); experiment: Counter screen SAR assay for PMM2 inhibitors via a fluorescence intensity assay. [Related pubchem assays (depositor defined):AID1545, AID1574]
T4 sequence (O15305 whole entry): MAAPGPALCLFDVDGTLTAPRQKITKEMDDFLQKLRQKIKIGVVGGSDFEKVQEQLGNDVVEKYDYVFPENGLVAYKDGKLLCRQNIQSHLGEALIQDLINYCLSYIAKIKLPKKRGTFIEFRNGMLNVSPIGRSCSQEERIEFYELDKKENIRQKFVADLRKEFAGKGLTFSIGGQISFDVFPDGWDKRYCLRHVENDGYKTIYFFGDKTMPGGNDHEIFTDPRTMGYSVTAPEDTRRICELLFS

[21] = luciferase reporter signal suppression in cells – H4 neuroglioma cells, luminescence, dose response (AID 1990); assay type: functional, cell-based
Hexokinase HKDC1 = biological target: T5, Hexokinase HKDC1 (Homo sapiens, UniProt Q2TB90); experiment: activation of HKDC1 glucose phosphorylation – biochemical, W721R variant, dose response (AID 504730); assay type: functional
T5 sequence (Q2TB90 whole entry): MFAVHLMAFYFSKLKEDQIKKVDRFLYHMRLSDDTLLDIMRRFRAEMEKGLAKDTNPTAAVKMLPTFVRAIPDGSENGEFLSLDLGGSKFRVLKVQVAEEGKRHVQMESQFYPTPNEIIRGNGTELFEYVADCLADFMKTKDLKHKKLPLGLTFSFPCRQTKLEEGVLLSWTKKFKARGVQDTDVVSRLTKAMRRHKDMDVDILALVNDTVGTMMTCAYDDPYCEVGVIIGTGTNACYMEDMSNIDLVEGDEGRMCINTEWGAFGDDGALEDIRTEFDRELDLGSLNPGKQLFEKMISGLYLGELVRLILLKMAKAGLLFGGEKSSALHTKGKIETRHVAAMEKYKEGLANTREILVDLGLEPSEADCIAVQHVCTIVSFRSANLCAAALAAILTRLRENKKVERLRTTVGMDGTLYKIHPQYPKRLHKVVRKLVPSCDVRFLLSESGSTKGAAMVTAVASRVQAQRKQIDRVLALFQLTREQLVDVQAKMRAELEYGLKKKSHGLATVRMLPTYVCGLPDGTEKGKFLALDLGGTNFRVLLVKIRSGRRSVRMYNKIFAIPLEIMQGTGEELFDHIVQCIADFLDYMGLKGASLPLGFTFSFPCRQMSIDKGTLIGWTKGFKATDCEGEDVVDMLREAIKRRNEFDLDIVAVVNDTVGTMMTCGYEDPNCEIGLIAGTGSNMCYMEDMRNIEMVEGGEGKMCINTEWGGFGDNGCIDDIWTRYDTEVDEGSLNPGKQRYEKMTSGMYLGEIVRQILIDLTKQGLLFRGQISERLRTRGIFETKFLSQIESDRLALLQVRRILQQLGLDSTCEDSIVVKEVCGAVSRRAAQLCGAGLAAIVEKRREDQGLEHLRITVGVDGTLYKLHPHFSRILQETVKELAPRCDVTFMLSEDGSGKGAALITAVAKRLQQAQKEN

[22] = Luminescence Cell-Based Dose Response HTS to Identify Inhibitors of 5'UTR Stem-Loop Driven Prion Protein mRNA Translation in H4 Neuroglioblastoma Cells. [Related pubchem assays: 1827 (Project Summary), 1813 (Primary HTS)]; assay type: functional
[23] = biological target: T2, Voltage-gated N-type calcium channel alpha-1B subunit/Amyloid beta A4 precursor protein-binding family A member 1; assay type: protein assay; remark: listed apart in the source
[24] = alpha-synuclein stem-loop luciferase translation blockers – H4 neuroglioma cells, luminescence, confirmation (AID 1988); assay type: functional, cell-based
[25] = toxicity toward cultured mammalian cells – cell-based, plate reader, cherry-pick samples, cytotoxicity control, dose response (AID 504397); assay type: functional
CAAX prenyl protease 2 [26] = biological target: T6, CAAX prenyl protease 2 (Homo sapiens, UniProt Q9Y256); experiment: inhibition of Ras-converting CAAX protease Rce1 – biochemical, yeast membranes, quenched-peptide fluorescence, cherry-pick, dose response (AID 588849)
T6 sequence (Q9Y256 whole entry): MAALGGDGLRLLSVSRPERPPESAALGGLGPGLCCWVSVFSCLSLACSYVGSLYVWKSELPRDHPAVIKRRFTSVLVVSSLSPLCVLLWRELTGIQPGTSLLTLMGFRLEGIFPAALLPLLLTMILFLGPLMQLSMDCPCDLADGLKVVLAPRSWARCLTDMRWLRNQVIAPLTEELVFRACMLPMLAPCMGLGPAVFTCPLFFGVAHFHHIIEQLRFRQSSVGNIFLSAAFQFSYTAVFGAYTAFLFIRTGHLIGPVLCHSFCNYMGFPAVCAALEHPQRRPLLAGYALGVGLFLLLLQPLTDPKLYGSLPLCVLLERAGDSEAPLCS

CAAX prenyl protease 2 [27] = biological target: T7, CAAX prenyl protease 2 (Saccharomyces cerevisiae S288c, UniProt Q03530); assay type: biochemical
T7 sequence (Q03530 whole entry): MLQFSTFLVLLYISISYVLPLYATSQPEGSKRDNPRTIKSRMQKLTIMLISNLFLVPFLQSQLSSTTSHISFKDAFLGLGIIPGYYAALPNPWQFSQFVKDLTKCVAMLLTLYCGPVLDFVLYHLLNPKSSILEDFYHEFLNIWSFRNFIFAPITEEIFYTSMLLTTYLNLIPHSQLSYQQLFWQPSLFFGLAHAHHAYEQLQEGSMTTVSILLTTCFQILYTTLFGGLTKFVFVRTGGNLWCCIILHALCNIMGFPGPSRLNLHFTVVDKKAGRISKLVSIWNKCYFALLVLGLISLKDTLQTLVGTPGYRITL

[28] = biological target: T8, Ubiquitin-conjugating enzyme E2 N (Homo sapiens, UniProt P61088); assay type: functional
T8 sequence (P61088 whole entry): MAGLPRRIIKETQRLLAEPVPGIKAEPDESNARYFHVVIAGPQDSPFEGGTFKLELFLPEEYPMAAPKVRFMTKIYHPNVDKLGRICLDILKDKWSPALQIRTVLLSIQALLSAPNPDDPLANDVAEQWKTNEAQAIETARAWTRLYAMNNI

Bcl-2-related protein A1 = biological target: T9, Bcl-2-related protein A1 (Mus musculus, UniProt Q07440); assay type: functional;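 also: confirmatory dose–response counterscreen on Bfl-1, used to check hits from a UBC13 polyubiquitin inhibitor campaign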
T9 sequence (Q07440 whole entry): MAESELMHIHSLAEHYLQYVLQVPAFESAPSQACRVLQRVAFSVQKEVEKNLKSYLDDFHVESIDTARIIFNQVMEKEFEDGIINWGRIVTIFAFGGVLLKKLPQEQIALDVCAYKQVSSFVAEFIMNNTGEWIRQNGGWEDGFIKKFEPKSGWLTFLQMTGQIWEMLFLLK

[29] = biological target: T8, Ubiquitin-conjugating enzyme E2 N; assay type: functional; remark: listed apart in the source

CN(C)c1nc(-c2ccccn2)nnc1-c1ccccc1
AC50 [1]: 6.17 µM (active) | EC50 (cells [2]): 7.46 µM (active) | AC50 (A-375): 39.3 µM (active) | EC50 (BJ [3]): 121 µM (inconclusive) | AC50 [4]: 57.6 µM (active) | EC50 (BJ [5]): 16.5 µM (inconclusive) | CC50 [6]: 5.38 µM (active) | CC50 [7]: 19.8 µM (active) | EC50 (HT-1080): > 50 µM (not active) | AC50 [8]: 8.3 µM (active) | EC50 (BJ [9]): 13.3 µM (inconclusive) | IC50 (Nonstructural protein 1): 1.09 µM (active) | EC50 [10]: 1.23 µM (active) | AC50 [11]: 3.3 µM (active) | EC50 [12]: 17.5 µM (active) | EC50 (BJ [13]): > 150 µM (inconclusive) | EC50 (cells [14]): > 350 µM (not active) | IC50 (cells [15]): 6.05 µM (active) | CC50 [16]: 8.1 µM (active)

Cc1ccc(/N=c2\ssnc2Cl)cc1
EC50 (Hexokinase-1): 53.2 µM (inactive) | IC50 [17]: 10.2 µM (active) | IC50 [18]: 9.27 µM (active) | IC50 [19]: 35.4 µM (inactive) | IC50 [20]: 18.6 µM (active) | IC50 (Phosphomannomutase 2): > 100 µM (inactive) | EC50 [21]: > 120 µM (not active) | EC50 (Hexokinase HKDC1): 59 µM (inactive) | EC50 [22]: > 120 µM (not active) | IC50 [23]: 2.85 µM (active) | EC50 [24]: > 120 µM (not active)

Cc1cccc(OCCN2C(=O)C(=O)c3cc(C)ccc32)c1
AC50 [25]: 73.6 µM (active) | AC50 (CAAX prenyl protease 2 [26]): 18.1 µM (active) | AC50 (CAAX prenyl protease 2 [27]): 1.11 µM (active)

CC(C)C[C@H](N)c1cn([C@@H](Cc2cc3ccccc3[nH]2)C(=O)N2CCNCC2)nn1
IC50 [28]: 14 µM (active) | IC50 (Bcl-2-related protein A1): > 20 µM (inactive) | IC50 [29]: 15.8 µM (active)
